{"source": "patent US6521751B1", "about": "“Recombinant nucleic acid sequences and methods for determining both genotoxicity and mutagenicity of a sample and the kinetics of the genotoxicity” (Vlaamse Instelling voor Technologisch Onderzoek (VITO), priority 1998, dated 2003)", "key": {"[1]": {"test_system": "S. typhimurium TA104 containing pMOL1069", "conditions": "TA104 pMOL1069"}, "[2]": {"test_system": "S. typhimurium TA100* containing pMOL890"}, "[3]": {"test_system": "S. typhimurium TA1538"}, "[4]": {"test_system": "S. typhimurium TA98* containing pMOL890"}, "[5]": {"test_system": "S. typhimurium TA104* containing pMOL890"}, "[6]": {"test_system": "S. typhimurium", "conditions": "cited from earlier work"}, "[7]": {"test_system": "S. typhimurium TA98 containing pMOL1068", "conditions": "TA98 pMOL1068"}, "[8]": {"test_system": "TA 98 and TA104 strains containing pMOL1067 or pMOL1068", "conditions": "TA 98 and TA104 strains containing pMOL1067 or pMOL1068"}, "[9]": {"test_system": "S. typhimurium TA1535* containing pMOL890"}, "[10]": {"test_system": "S. typhimurium TA104 containing pMOL1066", "conditions": "TA104 pMOL1066"}, "[11]": {"test_system": "E. coli (sfiA-lacZ)", "conditions": "cited from earlier work; for SOS (result) / MINIMAL DETECTED CONCENTRATION (MDC): SOS chromotest; for SOS (result): Table 3; for MINIMAL DETECTED CONCENTRATION (MDC): literature values"}, "[12]": {"test_system": "S. typhimurium TA98 containing pMOL890", "conditions": "TA98 pMOL890"}, "[13]": {"test_system": "S. typhimurium TA98 containing pMOL1067", "conditions": "TA98 pMOL1067"}, "[14]": {"test_system": "S. typhimurium TA104 containing pMOL1068", "conditions": "TA104 pMOL1068"}, "[15]": {"test_system": "S. typhimurium TA1538* containing pMOL890"}, "[16]": {"test_system": "S. typhimurium TA1535"}, "[17]": {"test_system": "S. typhimurium TA104 containing pMOL1067", "conditions": "TA104 pMOL1067"}, "[18]": {"test_system": "S. typhimurium TA104"}, "[19]": {"test_system": "S. typhimurium TA100"}, "[20]": {"test_system": "TA98 and TA104 containing pMOL1067", "test": "Induction kinetics with pMOL1067", "format": "cell-based, S. typhimurium", "experimental": "The reaction of the different constructs when more than one genotoxic product is present in the test sample. was examined. This is an important aspect, since environmental samples often contain more than one genotoxic pollutant. Also in this regard many pharmaceutical products that have to be tested for genotoxicity can be a combination of different active genotoxic substances (e.g. anticancer or anti AIDS drugs). The experiments were performed with TA98 and TA104 containing either pMOL1067 or pMOL890. These two constructs were chosen since they show similar induction kinetics and the best signal/noise ratio's in S. typhimurium (see FIG. 7 and FIG. 8). As test products, several combinations of MMS and novobiocine were taken. These products were used since they were found by us to have different induction kinetics (e.g., with pMOL1067 MMS gives a maximum after 2 hours, while the maximal signal/noise ratio with novobiocine is observed after 4 hours)."}, "[21]": {"test_system": "S. typhimurium TA98"}, "[22]": {"test_system": "S. typhimurium TA104 containing pMOL890", "conditions": "TA104 pMOL890"}, "[23]": {"test_system": "novel biosensor systems in E. coli and in S. typhimurium strains", "test": "Subject SOS promoter-lux systems (general statements)", "conditions": "agents known to give false negative results in the SOS chromotest and the Ames test"}, "[24]": {"test_system": "TA98 and TA104 strains containing pMOL890, pMOL1067 or pMOL1068", "test": "Test with the TA98 and TA104 strains containing pMOL890, pMOL1067 or pMOL1068"}}, "note": "“And” between values parts separate entries of the source, which are not always exact repeats. Equal entries are not always repeated. Where two headings read alike, the source gives them in different places."}
{"smiles": "COS(C)(=O)=O", "note": "[MMS, Methylmethanesulphonate]", "values": [{"measurement": "MINIMAL DETECTED CONCENTRATION (MDC)", "setting": "[1]", "result": 7.3, "unit": "nmol/assay"}, {"measurement": "Number of His^+ revertants", "setting": "[2]; MMS 0.1 μl", "result": "160 and 152"}, {"measurement": "Number of His^+ revertants", "setting": "[2]; MMS 0.2 μl", "result": "242 and 314"}, {"measurement": "Number of His^+ revertants", "setting": "[2]; MMS 1 μl", "result": "536 and 528"}, {"measurement": "Conclusion (Ames test)", "setting": "[3]", "result": "−"}, {"measurement": "Number of His^+ revertants", "setting": "[4]; MMS 0.1 μl", "result": "25 and 27"}, {"measurement": "Number of His^+ revertants", "setting": "[4]; MMS 0.2 μl", "result": "26 and 28"}, {"measurement": "Number of His^+ revertants", "setting": "[4]; MMS 1 μl", "result": "22 and 27"}, {"measurement": "Number of His^+ revertants", "setting": "[5]; MMS 0.1 μl", "result": "224 and 218"}, {"measurement": "Number of His^+ revertants", "setting": "[5]; MMS 0.2 μl", "result": "428 and 325"}, {"measurement": "Number of His^+ revertants", "setting": "[5]; MMS 1 μl", "result": "672 and 724"}, {"measurement": "AMES (result)", "setting": "[6]", "result": "pos"}, {"measurement": "MINIMAL DETECTED CONCENTRATION (MDC)", "setting": "[6]", "result": 60, "unit": "nmol/assay"}, {"measurement": "MINIMAL DETECTED CONCENTRATION (MDC)", "setting": "[7]", "result": 7.3, "unit": "nmol/assay"}, {"measurement": "OUTCOME (genotoxicity, final outcome)", "setting": "[8]", "result": "pos"}, {"measurement": "Number of His^+ revertants", "setting": "[9]; MMS 0.1 μl", "result": 32}, {"measurement": "Number of His^+ revertants", "setting": "[9]; MMS 0.2 μl", "result": 24}, {"measurement": "Number of His^+ revertants", "setting": "[9]; MMS 1 μl", "result": "29 and 26"}, {"measurement": "MINIMAL DETECTED CONCENTRATION (MDC)", "setting": "[10]", "result": 7.3, "unit": "nmol/assay"}, {"measurement": "SOS (result)", "setting": "[11]", "result": "pos"}, {"measurement": "MINIMAL DETECTED CONCENTRATION (MDC)", "setting": "[11]", "result": 20, "unit": "nmol/assay"}, {"measurement": "MINIMAL DETECTED CONCENTRATION (MDC)", "setting": "[12]", "result": 7.3, "unit": "nmol/assay"}, {"measurement": "MINIMAL DETECTED CONCENTRATION (MDC)", "setting": "[13]", "result": 7.3, "unit": "nmol/assay"}, {"measurement": "MINIMAL DETECTED CONCENTRATION (MDC)", "setting": "[14]", "result": 7.3, "unit": "nmol/assay"}, {"measurement": "Number of His^+ revertants", "setting": "[15]; MMS 0.1 μl", "result": "36 and 28"}, {"measurement": "Number of His^+ revertants", "setting": "[15]; MMS 0.2 μl", "result": "28 and 27"}, {"measurement": "Number of His^+ revertants", "setting": "[15]; MMS 1 μl", "result": "27 and 29"}, {"measurement": "Number of His^+ revertants", "setting": "[16]; MMS 0.1 μl", "result": "27 and 18"}, {"measurement": "Number of His^+ revertants", "setting": "[16]; MMS 0.2 μl", "result": "23 and 24"}, {"measurement": "Number of His^+ revertants", "setting": "[16]; MMS 1 μl", "result": "27 and 38"}, {"measurement": "MINIMAL DETECTED CONCENTRATION (MDC)", "setting": "[17]", "result": 7.3, "unit": "nmol/assay"}, {"measurement": "Conclusion (Ames test)", "setting": "[18]", "result": "+"}, {"measurement": "Number of His^+ revertants", "setting": "[19]; MMS 0.1 μl", "result": "344 and 392"}, {"measurement": "Number of His^+ revertants", "setting": "[19]; MMS 0.2 μl", "result": "604 and 560"}, {"measurement": "Number of His^+ revertants", "setting": "[19]; MMS 1 μl", "result": "1120 and 1282"}, {"measurement": "time of maximal signal/noise ratio", "setting": "[20]", "result": 2, "unit": "h"}, {"measurement": "Conclusion (Ames test)", "setting": "[21]", "result": "−"}, {"measurement": "MINIMAL DETECTED CONCENTRATION (MDC)", "setting": "[22]", "result": 7.3, "unit": "nmol/assay"}]}
{"smiles": "CO[C@@H]1[C@@H](OC(N)=O)[C@@H](O)[C@H](Oc2ccc3c(O)c(NC(=O)c4ccc(O)c(CC=C(C)C)c4)c(=O)oc3c2C)OC1(C)C", "note": "[novobiocine]", "values": [{"measurement": "MINIMAL DETECTED CONCENTRATION (MDC)", "setting": "[1]", "result": 0.32, "unit": "nmol/assay"}, {"measurement": "result in the novel systems according to the invention", "setting": "[23]", "result": "positive"}, {"measurement": "MINIMAL DETECTED CONCENTRATION (MDC)", "setting": "[6]; AMES, literature values, pos/neg where MDC could not be calculated", "result": "pos"}, {"measurement": "AMES (result)", "setting": "[6]; Ames test, Table 3", "result": "pos"}, {"measurement": "MINIMAL DETECTED CONCENTRATION (MDC)", "setting": "[7]", "result": 0.63, "unit": "nmol/assay"}, {"measurement": "result in the test (genotoxicity)", "setting": "[24]", "result": "positive"}, {"measurement": "OUTCOME (genotoxicity, final outcome)", "setting": "[8]", "result": "pos"}, {"measurement": "MINIMAL DETECTED CONCENTRATION (MDC)", "setting": "[10]", "result": 1.26, "unit": "nmol/assay"}, {"measurement": "SOS (result)", "setting": "[11]", "result": "neg"}, {"measurement": "MINIMAL DETECTED CONCENTRATION (MDC)", "setting": "[11]", "result": "neg"}, {"measurement": "result in the SOS chromotest", "setting": "[11]; text b126", "result": "negative"}, {"measurement": "MINIMAL DETECTED CONCENTRATION (MDC)", "setting": "[12]", "result": 0.57, "unit": "nmol/assay"}, {"measurement": "MINIMAL DETECTED CONCENTRATION (MDC)", "setting": "[13]", "result": 0.079, "unit": "nmol/assay"}, {"measurement": "MINIMAL DETECTED CONCENTRATION (MDC)", "setting": "[14]", "result": 1.26, "unit": "nmol/assay"}, {"measurement": "MINIMAL DETECTED CONCENTRATION (MDC)", "setting": "[17]", "result": 0.32, "unit": "nmol/assay"}, {"measurement": "time of maximal signal/noise ratio", "setting": "[20]", "result": 4, "unit": "h"}, {"measurement": "MINIMAL DETECTED CONCENTRATION (MDC)", "setting": "[22]", "result": 1.26, "unit": "nmol/assay"}]}
